{"source": "patent US20230128252A1", "about": "“PHARMACEUTICAL COMPOSITIONS” (Shenzhen Pharmacin Co., Ltd., priority 2020, published 2023)", "key": {"[1]": {"test_system": "imiquimod-induced psoriasis like mouse model", "test": "imiquimod-induced psoriasis like mouse model, PASI method", "assay_type": "in vivo, C57BL/6J mice", "settings": "Formulations 1-3, topical", "text": "Fifty C57BL/6J mice were random divided into 5 groups, naïve group, model group, Formulation 1-3 groups. All mice were shaved on the back. Naïve group was the negative group and as the blank control. The other four groups were locally applied with 5% imiquimod cream (sold under the tradename Aldara®) once a day for a week. […] In the last three days, the changes of skin lesions were observed and evaluated by PASI method. PASI method: the scores of erythema, scale and infiltration thickening in the skin lesions were scored respectively, and the sum of the three scores was the total score. PASI scoring standard: 0, none; 1, mild; 2, moderate; 3, severe; 4, extremely severe."}, "[2]": {"test": "preparation of clofazimine carbomer gel with organic solvents", "assay_type": "physicochemical", "settings": "Carbomer 940 gel in water, pH 7.0"}, "[3]": {"molecular_target": "Kv1.3 channels in human Jurkat E6-1 cells (Homo sapiens, UniProt P22001)", "sequence (P22001 whole entry)": "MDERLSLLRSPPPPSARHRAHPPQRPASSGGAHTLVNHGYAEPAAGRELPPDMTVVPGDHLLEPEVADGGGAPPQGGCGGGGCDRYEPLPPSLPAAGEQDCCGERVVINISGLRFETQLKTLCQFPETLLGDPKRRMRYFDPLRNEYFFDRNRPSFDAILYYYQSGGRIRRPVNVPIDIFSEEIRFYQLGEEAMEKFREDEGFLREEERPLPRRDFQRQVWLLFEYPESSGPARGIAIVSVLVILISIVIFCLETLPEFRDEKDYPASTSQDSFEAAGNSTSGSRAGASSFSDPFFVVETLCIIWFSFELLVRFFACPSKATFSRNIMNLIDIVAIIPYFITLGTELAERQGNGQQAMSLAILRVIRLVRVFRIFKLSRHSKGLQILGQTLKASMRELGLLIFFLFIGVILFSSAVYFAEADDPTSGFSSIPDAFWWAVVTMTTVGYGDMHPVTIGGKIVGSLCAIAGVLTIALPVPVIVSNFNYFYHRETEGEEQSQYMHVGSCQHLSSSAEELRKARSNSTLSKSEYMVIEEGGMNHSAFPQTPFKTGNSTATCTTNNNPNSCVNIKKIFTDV", "test": "Inhibition of Kv1.3 channel current, voltage ramp protocol", "settings": "for Inhibition ratio of Kv1.3 channel current in Jurkat E6-1 cells: n 3"}, "[4]": {"test_system": "chronic discoid lupus erythematosus", "settings": "human clinical study; cited from earlier work"}, "[5]": {"test_system": "IL-2 secretion of activated Jurkat cells", "test": "Inhibition of IL-2 secretion of activated Jurkat cells (ELISA)", "assay_type": "cell-based", "settings": "1 μM, 3 μM, and 10 μM in DMSO; PMA+PHA activated; 24 h (FIG. 11)", "description": "In each group, Jurkat cells were incubated with corresponding formulation. After 24 h, the secretion of IL-2 was detected by ELISA."}, "[6]": {"settings": "cited from earlier work"}, "[7]": {"test": "pharmacokinetics and tissue distribution after single-dose topical application in minipigs", "assay_type": "in vivo, Bama minipigs", "settings": "Formulation 11 (0.03%) single topical application", "description": "Studies were performed to evaluate the pharmacokinetics and tissue distribution after a single-dose topical application of Formulation 11 (clofazimine 0.03%) in Bama minipigs. 24 Bama minipigs were divided into 6 groups (n=4), each group of minipigs received a single topical application of Formulation 11 (0.03%) at a dose of 1.5 mg ointment/cm^2. Blood samples, epidermis, dermis, subcutaneous tissue and subcutaneous muscle were collected at 0.5, 4, 24, 48, 72 and 96 hours (one time point for one group) after drug application. A validated LC-MS/MS method was used to determine the concentration of clofazimine in plasma, epidermis, dermis, subcutaneous tissues and subcutaneous muscle and the pharmacokinetic parameters were calculated (the standard curve range of clofazimine is 0.0100˜10.0 ng/mL)."}, "[8]": {"test": "Solubility of clofazimine in fatty acids", "assay_type": "physicochemical", "settings": "fatty acid, 25 °C"}, "[9]": {"test": "Compatibility of clofazimine and excipients (60° C., 3 days, HPLC)", "assay_type": "physicochemical", "settings": "for Degradation total impurities: 60° C. for 3 days", "description": "Clofazimine was dissolved into different excipients with different mass ratios, then the mixture was placed in the condition of 60° C. for 3 days. The total degradation impurities were measured by HPLC and summarized below in Table 25. The excipients were classified by the results as below."}}}
{"smiles": "CC(C)/N=c1\\cc2n(-c3ccc(Cl)cc3)c3ccccc3nc-2cc1Nc1ccc(Cl)cc1", "note": "[Clofazimine, N,5-bis(4-chlorophenyl)-3-propan-2-ylimino phenazin-2-amine]", "values": [{"measurement": "treatment effect on the imiquimod-induced psoriasis like mouse model", "setting": "[1]", "value": "confirmed the treatment effect"}, {"measurement": "outcome of gel preparation", "setting": "[2]; solvent Laurocapram", "value": "formation of separated layers"}, {"measurement": "outcome of gel preparation", "setting": "[2]; solvent Propylene glycol", "value": "clofazimine precipitation"}, {"measurement": "IC50", "setting": "[3]", "value": 3.3, "unit": "µM"}, {"measurement": "Inhibition ratio of Kv1.3 channel current in Jurkat E6-1 cells", "setting": "[3]; 0.3 μM", "value": "7.09 ± 0.86", "unit": "%"}, {"measurement": "Inhibition ratio of Kv1.3 channel current in Jurkat E6-1 cells", "setting": "[3]; 1 μM", "value": "18.89 ± 3.38", "unit": "%"}, {"measurement": "Inhibition ratio of Kv1.3 channel current in Jurkat E6-1 cells", "setting": "[3]; 3 μM", "value": "46.84 ± 4.55", "unit": "%"}, {"measurement": "Inhibition ratio of Kv1.3 channel current in Jurkat E6-1 cells", "setting": "[3]; 10 μM", "value": "70.11 ± 2.91", "unit": "%"}, {"measurement": "Inhibition ratio of Kv1.3 channel current in Jurkat E6-1 cells", "setting": "[3]; 20 μM", "value": "83.62 ± 1.99", "unit": "%"}, {"measurement": "remission of chronic discoid lupus erythematosus", "setting": "[4]", "value": "a majority of patients showed remission"}, {"measurement": "secretion of IL-2", "setting": "[5]", "value": "significantly inhibited"}, {"measurement": "Log P", "setting": "[6]", "value": 7.48}, {"measurement": "pKa", "setting": "[6]", "value": 8.37}, {"measurement": "Water solubility", "setting": "[6]; virtually insoluble", "value": 0.000225, "unit": "mg/mL"}, {"measurement": "median time to peak dermal concentration", "setting": "[7]", "value": "about 4 h"}, {"measurement": "median time to peak epidermal concentration", "setting": "[7]", "value": "about 0.5 h"}, {"measurement": "median time to peak subcutaneous muscle concentration", "setting": "[7]", "value": "about 0.5 h"}, {"measurement": "median time to peak subcutaneous tissues concentration", "setting": "[7]", "value": "about 4 h"}, {"measurement": "tissue distribution", "setting": "[7]", "value": "mainly distributed in the epidermis and dermis, and not absorbed into blood"}, {"measurement": "solubility", "setting": "[8]; oil or lipid, Heptanoic acid", "value": 78.3, "unit": "mg/mL"}, {"measurement": "solubility", "setting": "[8]; oil or lipid, Hexanoic acid", "value": 80.7, "unit": "mg/mL"}, {"measurement": "solubility", "setting": "[8]; oil or lipid, Linoleic acid", "value": 90.2, "unit": "mg/mL"}, {"measurement": "solubility", "setting": "[8]; oil or lipid, Octanoic acid", "value": 56.3, "unit": "mg/mL"}, {"measurement": "solubility", "setting": "[8]; oil or lipid, Oleic acid", "value": 106, "unit": "mg/mL"}, {"measurement": "solubility", "setting": "[8]; organic solvent or mixture, Acetic acid", "value": 30.2, "unit": "mg/mL"}, {"measurement": "solubility", "setting": "[8]; organic solvent or mixture, Butyric acid", "value": 49.2, "unit": "mg/mL"}, {"measurement": "solubility", "setting": "[8]; organic solvent or mixture, Isovaleric acid", "value": 58.6, "unit": "mg/mL"}, {"measurement": "solubility", "setting": "[8]; organic solvent or mixture, Propionic acid", "value": 28.2, "unit": "mg/mL"}, {"measurement": "chemical stability (hydrolysis, oxidation)", "setting": "[9]", "value": "easily hydrolyzed and oxidized"}, {"measurement": "Degradation total impurities", "setting": "[9]; Campmul MCM (1:100)", "value": ">1", "unit": "%"}, {"measurement": "Degradation total impurities", "setting": "[9]; Campmul MCM + water (1:100:800)", "value": ">1", "unit": "%"}, {"measurement": "Degradation total impurities", "setting": "[9]; Gelucire 44/14 (1:100)", "value": ">1", "unit": "%"}, {"measurement": "Degradation total impurities", "setting": "[9]; Oleic acid (1:50)", "value": "0.5-1%"}, {"measurement": "Degradation total impurities", "setting": "[9]; Oleic acid + labrasol (1:50:100)", "value": ">1", "unit": "%"}, {"measurement": "Degradation total impurities", "setting": "[9]; PEG 400 (1:400)", "value": ">1", "unit": "%"}, {"measurement": "Degradation total impurities", "setting": "[9]; PEG 3350 (1:400)", "value": "0-0.5%"}, {"measurement": "Degradation total impurities", "setting": "[9]; RH 40 (1:100)", "value": "0-0.5%"}, {"measurement": "Degradation total impurities", "setting": "[9]; Stearyl alcohol (1:70)", "value": "0-0.5%"}, {"measurement": "Degradation total impurities", "setting": "[9]; Tefose 63 (1:100)", "value": ">1", "unit": "%"}, {"measurement": "Degradation total impurities", "setting": "[9]; Vaseline (1:3000)", "value": "0-0.5%"}, {"measurement": "Degradation total impurities", "setting": "[9]; glycerin (1:2500)", "value": "0-0.5%"}, {"measurement": "Degradation total impurities", "setting": "[9]; labrasol (1:100)", "value": "0.5-1%"}, {"measurement": "Degradation total impurities", "setting": "[9]; labrasol + carbomer (1:100:5)", "value": "0.5-1%"}, {"measurement": "Degradation total impurities", "setting": "[9]; labrasol + water (1:100:800)", "value": "0.5-1%"}, {"measurement": "Degradation total impurities", "setting": "[9]; liquid paraffin (1:1000)", "value": "0-0.5%"}, {"measurement": "Degradation total impurities", "setting": "[9]; oleic acid + labrasol + water (1:50:100:800)", "value": ">1", "unit": "%"}, {"measurement": "Degradation total impurities", "setting": "[9]; propyl glycol (1:2500)", "value": "0-0.5%"}, {"measurement": "Degradation total impurities", "setting": "[9]; transcutol + tween 80 (1:100:100)", "value": ">1", "unit": "%"}, {"measurement": "Degradation total impurities", "setting": "[9]; transcutol + water (1:100:800)", "value": "0.5-1%"}, {"measurement": "Degradation total impurities", "setting": "[9]; trascutol (1:100)", "value": ">1", "unit": "%"}, {"measurement": "Degradation total impurities", "setting": "[9]; tween 80 (1:100)", "value": ">1", "unit": "%"}]}
